The text below walks through data of patent publication US10858365B2, “Triazolo-pyrimidine compounds and uses thereof” (Dizal (Jiangsu) Pharmaceutical Co., Ltd., priority 2018, dated 2020).

Holding throughout (format): cell-based
For experiment [1], the target named is hA2b (Homo sapiens (Human), UniProt P29275). The experiment in a line: cAMP inhibition assay in hA2b/CHO cells. To be noted: adenosine stimulation, read-out: cAMP & FLIPR IC50 (nM) hA2b. The method, then: (§1) hA2a/CHO, hA2b/CHO and mA2a/CHO (Genscript) were plated at 5×10^3 cells/well into 384-well polystyrene plates at the day of experiment. Compounds were pre-incubated with cells for 30 min at 37° C., 5% CO2. Then […] adenosine was added to the cells and incubated for 30 min at 37° C., 5% CO2. Detection reagent (CISBIO) was added and the plates were incubated for 60 min at room temperature. The signal was captured by Envision.

In experiment [2] the target is mA2a (Mus musculus (Mouse), UniProt Q60613). The experiment can be described thus: cAMP inhibition assay in mA2a/CHO cells. Conditions: adenosine stimulation, read-out: cAMP & FLIPR IC50 (nM) mA2a. The method, then:
as §1

In experiment [3] the target is hA1 (Homo sapiens (Human), UniProt P30542). The experiment in a line: FLIPR inhibition assay in hADORA1/CHO (hA1 expressing) cells. Conditions: hADORA1/CHO cells, FLIPR calcium, adenosine stimulation; read-out: cAMP & FLIPR IC50 (nM) hA1. The procedure: hADORA1/CHO (hA1 expressing) cells (Genscript) were plated at 1×10^4 cells/well into 384-well polystyrene plates one day before starting the experiment. On the day of experiment, the supernatant was discard and replaced with 40 µL of dye (FLIPR calcium 5 Assay Kit) per well and the plates were incubated for 60 mins at 37° C. plus 5% CO2. Then testing compounds were added at different concentrations for FLIPR™ inhibition assay. After a 400 s incubation with compound, […] adenosine was added into the cells, and the signal was captured by FLIPR.

The target in experiment [4] is hA2a (Homo sapiens (Human), UniProt P29274). The experiment can be described thus: cAMP inhibition assay in hA2a/CHO cells. To be noted: adenosine stimulation, read-out: cAMP & FLIPR IC50 (nM) hA2a. The method, then:
as §1
FLIPR™ and cAMP inhibition activities of exemplary compounds in different adenosine receptor over-expressing cell lines are shown in Table 4 below.

Chain of hA1 (P30542 whole entry): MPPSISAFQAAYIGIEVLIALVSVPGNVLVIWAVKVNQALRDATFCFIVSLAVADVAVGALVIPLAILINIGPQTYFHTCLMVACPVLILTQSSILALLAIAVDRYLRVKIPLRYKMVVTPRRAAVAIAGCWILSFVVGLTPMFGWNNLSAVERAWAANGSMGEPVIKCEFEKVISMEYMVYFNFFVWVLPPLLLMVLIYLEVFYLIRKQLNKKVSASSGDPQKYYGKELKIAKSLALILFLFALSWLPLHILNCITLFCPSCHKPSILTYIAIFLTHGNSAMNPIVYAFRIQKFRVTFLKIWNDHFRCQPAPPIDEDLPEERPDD
Chain of hA2a (P29274 whole entry): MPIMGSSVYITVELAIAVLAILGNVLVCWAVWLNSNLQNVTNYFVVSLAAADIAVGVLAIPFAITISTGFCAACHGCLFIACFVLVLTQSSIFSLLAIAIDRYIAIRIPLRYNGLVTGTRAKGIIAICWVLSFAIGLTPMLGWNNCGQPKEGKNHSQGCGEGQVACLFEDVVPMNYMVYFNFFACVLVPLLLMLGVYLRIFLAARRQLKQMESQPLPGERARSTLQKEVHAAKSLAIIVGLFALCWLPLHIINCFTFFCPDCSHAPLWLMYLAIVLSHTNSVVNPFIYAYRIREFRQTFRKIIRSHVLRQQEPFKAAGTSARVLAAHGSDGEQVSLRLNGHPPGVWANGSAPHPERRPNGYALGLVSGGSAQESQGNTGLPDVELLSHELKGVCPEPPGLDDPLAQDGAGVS
Chain of mA2a (Q60613 whole entry): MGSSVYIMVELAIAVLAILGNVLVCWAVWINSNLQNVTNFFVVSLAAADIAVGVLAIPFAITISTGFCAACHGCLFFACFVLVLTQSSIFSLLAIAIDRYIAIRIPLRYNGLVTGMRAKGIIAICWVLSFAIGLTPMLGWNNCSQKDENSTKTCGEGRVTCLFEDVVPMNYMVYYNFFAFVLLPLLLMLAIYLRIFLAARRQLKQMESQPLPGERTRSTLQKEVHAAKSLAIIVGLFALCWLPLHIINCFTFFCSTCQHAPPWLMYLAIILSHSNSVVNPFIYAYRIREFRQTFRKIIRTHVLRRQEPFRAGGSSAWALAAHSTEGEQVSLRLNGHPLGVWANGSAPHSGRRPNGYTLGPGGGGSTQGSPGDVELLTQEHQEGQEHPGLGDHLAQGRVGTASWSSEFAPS
Chain of hA2b (P29275 whole entry): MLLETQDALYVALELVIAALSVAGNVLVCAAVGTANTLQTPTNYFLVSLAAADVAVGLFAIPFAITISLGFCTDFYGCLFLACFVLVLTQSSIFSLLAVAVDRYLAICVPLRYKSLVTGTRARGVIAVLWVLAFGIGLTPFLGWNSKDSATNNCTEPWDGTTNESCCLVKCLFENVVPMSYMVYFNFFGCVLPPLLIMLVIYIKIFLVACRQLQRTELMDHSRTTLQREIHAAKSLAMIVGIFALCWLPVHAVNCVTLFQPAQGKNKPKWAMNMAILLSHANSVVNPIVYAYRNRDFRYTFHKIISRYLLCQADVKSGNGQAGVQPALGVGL

What is called IC50 is the point on the concentration scale where inhibition reaches its midpoint. With `Cc1cc(-c2c(-c3ccc(F)cc3)nc(N)n3nc(Cc4cccc(N(C)C)n4)nc23)ccn1` [Example 17, 2-((6-(dimethylamino)pyridin-2-yl)methyl)-7-(4-fluorophenyl)-8-(2-methylpyridin-4-yl)-[1,2,4]triazolo[1,5-f]pyrimidin-5-amine], the IC50 in experiment [1] was found to be 4790 nM; in experiment [2], 51 nM; in experiment [3], 22 nM; in experiment [4] it was 43 nM.
In the same order, the values of `Cn1cnc2ccc(-c3c(-c4ncco4)nc(N)n4nc(Cc5ncccc5F)nc34)cc21` [Example 90, 2-((3-fluoropyridin-2-yl)methyl)-8-(1-methyl-1H-benzo[d]imidazol-6-yl)-7-(oxazol-2-yl)-[1,2,4] triazolo[1,5-c]pyrimidin-5-amine] are 48 nM, 3.5 nM, 72 nM and 1.8 nM.
Regarding `Cc1cc(-c2c(-c3ncco3)nc(N)n3nc(Cc4ncccc4F)nc23)cc(OC(F)F)n1` [Example 87], the IC50 in experiment [1] was 5800 nM; in experiment [2], 90 nM; in experiment [3], 4050 nM; in experiment [4] it was 27 nM.
Regarding `Nc1nc(-c2ccc(F)cc2)c(-c2ccc(=O)n(CCO)c2)c2nc(Cc3c(F)cccc3F)nn12` [Example 65, 5-(5-amino-2-(2,6-difluorobenzyl)-7-(4-fluorophenyl)-[1,2,4]triazolo[1,5-c]pyrimidin-8-yl)-1-(2-hydroxyethyl)pyridin-2(1H)-one], the IC50 in experiment [1] was found to be 14 nM; in experiment [2] it was 0.6 nM; in experiment [3], 17 nM; in experiment [4], 0.2 nM.
In the same order, the values of `Cn1cc(-c2c(-c3cccc(F)c3)nc(N)n3nc(Cc4ncccc4F)nc23)ccc1=O` [Example 40, 5-(5-amino-7-(3-fluorophenyl)-2-((3-fluoropyridin-2-yl)methyl)-[1,2,4]triazolo[1,5-c]pyrimidin-8-yl)-1-methylpyridin-2(1H)-one] are 72 nM, 15 nM, 18 nM and 5.2 nM.
In the case of `CNc1cc(-c2c(-c3ccc(F)cc3)nc(N)n3nc(Cc4ncccc4F)nc23)ccn1` [Example 43, 7-(4-fluorophenyl)-2-((3-fluoropyridin-2-yl)methyl)-8-(2-(methylamino)pyridin-4-yl)-[1,2,4]triazolo[1,5-c]pyrimidin-5-amine], the IC50 in experiment [1] was found to be 12 nM; in experiment [2], 41 nM; in experiment [3], 24 nM; in experiment [4], 19 nM.
For `Cc1cnc2ccc(-c3c(N4CCC5(COC5)C4)nc(N)n4nc(Cc5ncccc5F)nc34)cn12` [Example 110, 2-((3-fluoropyridin-2-yl)methyl)-8-(3-methylimidazo[1,2-a]pyridin-6-yl)-7-(2-oxa-6-azaspiro[3.4]octan-6-yl)-[l,2,4]triazolo[l,5-c]pyrimidin-5-amine] the same measures were above 10000 nM, 7190 nM, 85.9 nM and 795 nM.
Take `Cc1cnc2ccc(-c3c(-n4cc(F)cn4)nc(N)n4nc(Cc5ncccc5F)nc34)cn12` [Example 117, 7-(4-fluoro-1H-pyrazol-1-yl)-2-((3-fluoropyridin-2-yl)methyl)-8-(3-methylimidazo[l,2-a]pyridin-6-yl)-[1,2,4]triazolo[1,5-c]pyrimidin-5-amine]: the IC50 was found to be 16.4 nM in experiment [1], 0.5 nM in experiment [2], 9.7 nM in experiment [3] and 0.2 nM in experiment [4].
For `Cc1cnc2ccc(-c3c(-c4ncco4)nc(N)n4nc(CC5CCOC5)nc34)cn12` (single isomer, unassigned) [Example 107-1, 8-(3-methylimidazo[1,2-a]pyridin-6-yl)-7-(oxazol-2-yl)-2-((tetrahydrofuran-3-yl)methyl)-[1,2,4]triazolo[1,5-f]pyrimidin-5-amine], the IC50 was found to be 416 nM in experiment [1], 32.7 nM in experiment [2], 54.6 nM in experiment [3] and 0.5 nM in experiment [4].
Take `Cc1cnc2ccc(-c3c(-c4ccc(F)cc4)nc(N)n4nc(CCN(C)C)nc34)cn12` [Example 120, 2-(2-(dimethylamino)ethyl)-7-(4-fluorophenyl)-8-(3-methylimidazo[l,2-a]pyridin-6-yl)-[l,2,4]tria zolo[1,5-c]pyrimidin-5-amine]: the IC50 was 146 nM in experiment [1], 9.5 nM in experiment [2], 66.7 nM in experiment [3] and 0.6 nM in experiment [4].
Take `Cn1cc(-c2nc(N)n3nc(Cc4ncccc4F)nc3c2-c2ccc(=O)n(C)c2)cn1` [Example 59, 5-(5-amino-2-((3-fluoropyridin-2-yl)methyl)-7-(1-methyl-1H-pyrazol-4-yl)-[1,2,4]triazolo[1,5-c]pyrirridin-8-yl)-l-methylpyridin-2(1H)-one]: the IC50 in experiment [1] worked out at 1550 nM; in experiment [2], 179 nM; in experiment [3], 37 nM; in experiment [4], 98 nM.
For `Cc1cc(-c2c(-c3ncco3)nc(N)n3nc(Cc4ncccc4F)nc23)cc(Cl)n1` [Example 82, 8-(2-chloro-6-methylpyridin-4-yI)-2-((3-fluoropyridin-2-yl)methyl)-7-(oxazol-2-yl)-[l,2,4]triazolo [1,5-c]pyrimidin-5-amine] the same measures were 2910 nM, 63 nM, 2640 nM and 25 nM.
For `Cc1cc(-c2c(-c3ncco3)nc(N)n3nc(Cc4c(F)cccc4F)nc23)cc(N)n1` [Example 81, 8-(2-amino-6-methylpyridin-4-yl)-2-(2,6-difluor obenzyl)-7-(oxazol-2-yl)-[1,2,4]triazolo[1,5-c] pyrimidin-5-amine] the same measures were 9090 nM, 164 nM, 5320 nM and 49 nM.
Turning to `Cc1cnc2ccc(-c3c(-n4ccc(F)n4)nc(N)n4nc(Cc5ncccc5F)nc34)cn12` [Example 116, 7-(3-fluoro-1H-pyrazol-1-yl)-2-((3-fluoropyridin-2-yl)methyl)-8-(3-methylimidazo[l,2-a]pyridin-6-yl)-[l,2,4]triazolo[l,5-c]pyrimidin-5-amine], the IC50 in experiment [1] turned out to be 12.2 nM; in experiment [2], 0.2 nM; in experiment [3], 7.9 nM; in experiment [4] it was 0.2 nM.
As to `Nc1nc(-c2ccc(F)cc2)c(-c2ccc3nc[nH]c3c2)c2nc(Cc3ncccc3F)nn12` [Example 75, 8-(1H-benzo[d]imidazol-6-yl)-7-(4-fluorophenyl)-2-((3-fluoropyridin-2-yl)methyl)-[1,2,4]triazolo [l,5-c]pyrimidin-5-amine], the IC50 stood at 38 nM in experiment [1], 17 nM in experiment [2], 31 nM in experiment [3] and 1.7 nM in experiment [4].
For `Cc1ccc(-c2nc(N)n3nc(Cc4c(F)cccc4F)nc3c2-c2ccc(=O)n(C)c2)cn1` [Example 24, 5-[5-amino-2-[(2,6-difluorophenyl)methyl]-7-(6-methylpyridin-3-yl)-[1,2,4]triazolo[1,5-c]pyrimidin-8-yl]-1-methyl-1,2-dihydropyridin-2-one] the same measures were 631 nM, 162 nM, 12 nM and 58 nM.
In the same order, the values of `Cn1cc(-c2c(-c3ccc(F)cc3)nc(N)n3nc(Cc4ncc(F)cc4F)nc23)ccc1=O` [Example 67, 5-(5-amino-2-((3,5-difluoropyridin-2-yl)methyl)-7-(4-fluorophenyl)-[1,2,4]triazolo[1,5-c]pyrimidin-8-yl)-1-methylpyridin-2(1H)-one] are 3200 nM, 21 nM, 13 nM and 22 nM.
For `Cc1nccc(-c2c(-c3ccc(F)cc3)nc(N)n3nc(Cc4c(F)cccc4F)nc23)c1C` [Example 16, 2-(2,6-difluorobenzyl)-8-(2,3-dimethylpyridin-4-yl)-7-(4-fluorophenyl)-[1,2,4]triazolo[1,5-c] pyrimidin-5-amine] the same measures were 125 nM, 758 nM, 205 nM and 174 nM.
As to `COc1ccccc1-c1nc(N)n2nc(Cc3ncccc3F)nc2c1-c1ccc(=O)n(C)c1` [Example 98, 5-(5-amino-2-((3-fluoropyridin-2-yl)methyl)-7-(2-methoxyphenyl)-[1,2,4]triazolo[1,5-c]pyrimidin-8-yl)-1-methylpyridin-2(1H)-one], the IC50 in experiment [1] was 1540 nM; in experiment [2], 224 nM; in experiment [3] it was 333 nM; in experiment [4], 88 nM.
As for `Cc1cnc2ccc(-c3c(N4CCOCC4)nc(N)n4nc(Cc5ncccc5F)nc34)cn12` [Example 102, 2-((3-fluoropyridin-2-yl)methyl)-8-(3-methylimidazo[l,2-a]pyridin-6-yl)-7-morpholino-[l,2,4]tri azolo[1,5-c]pyrimidin-5-amine], the IC50 came to 121 nM in experiment [1], 11.2 nM in experiment [2], 27.2 nM in experiment [3] and 2.6 nM in experiment [4].
